Drawing on ChEMBL document CHEMBL1131851, “Synthesis and fluorescence properties of Oregon Green 514 labeled peptides” (Bioorg Med Chem Lett, 1999), this text covers pKa for two compounds.

The term pKa denotes the negative logarithm of the acid dissociation constant.

A short description of this series: Acid dissociation constant of the compound. The class given is ADME.

Each structure is given as a SMILES string.

With `O=C(O)CSc1c(F)c(F)c(C(=O)O)c(-c2c3cc(F)c(=O)cc-3oc3cc(O)c(F)cc23)c1F`, the pKa was found to be 4.8.
The compound `O=C(O)c1ccc(C(=O)O)c(-c2c3ccc(=O)cc-3oc3cc(O)ccc23)c1` [6-Carboxyfluorescein] had a pKa of 6.4.
